Source: patent US7927632B2, “Compositions for sterilizing spores of spore-forming microorganisms comprising the extracts of torilidis fructus” (CJ Cheiljedang Corporation, priority 2005, dated 2011)

Each compound was assayed on spores of Bacillus subtilis (assay: Sterilization effect on Bacillus subtilis spores by total viable cell count). Details: direct mechanism (surfactant ingredients) or indirect mechanism (germination inducers), ingredients acting jointly within the extract.
Description: Bacillus subtilis spores were selected for use in an antimicrobial test against a spore-forming microorganism.
Vegetative cells of Bacillus subtilis ATCC 6633 were sub-cultured, streaked onto tryptic soy agar (TSA) plates, and incubated at 30° C. for 48 hrs. The plates were then stored at a low temperature of 5° C. and used as a seed culture. After the seed culture was identified to have no morphological abnormality by microscopic observation, it was spread onto a nutrient agar plate containing magnesium sulfate (NAMS), and incubated at 30° C. for 48 hrs. After 10^10-10^12 spores had emerged, the plate was washed with physiological saline, and the spores were scratched with a platinum loop and transferred into a sterile tube. The spores were then centrifuged at 4° C. at 12,000 rpm for 2 min, and this centrifugation was carried out once more. After being microscopically observed to ensure the state of the spores, the pellet was subjected to on-off ultrasonication for 5 min to destroy only the vegetative cells, and was then centrifuged again. Spore formation was further confirmed by a Dorner method, and the spores were stored at −20° C. until use for an antimicrobial test.
The antimicrobial plant materials were extracted with 75% ethanol, concentrated in a vacuum, and freeze-dried to provide aqueous or powdered antimicrobial materials. […] An antimicrobial test against spores of Bacillus subtilis, the representative spore-forming microorganism, was performed by optical density analysis at 600 nm and by counting of the total number of viable cells grown on a nutrient agar plate.
Optical density analysis is a method of indirectly analyzing the degree of growth of vegetative cells and spores by measuring OD values at 600 nm for vegetative cells and spores cultured in tryptic soy broth (TSB) at 37° C. for 18 hrs. The plant materials were primarily screened for candidates considered effective in sterilization by optical density analysis. Then, the candidates were further assessed for their antimicrobial effects by viable cell count. In detail, a spore suspension was mixed with physiological saline and a natural antimicrobial material (1% final concentration). The mixture was agitated at 30° C. for 3 hrs, and was then centrifuged at 12,000 rpm. After the supernatant, considered to contain the added antimicrobial material, was discarded, the pellet remaining in an Ependorf tube was covered with distilled water and centrifuged again to eliminate residual antimicrobial material. This washing step was repeated three times to obtain only spores treated with a natural antimicrobial material. This was done to evaluate the sterilization effects of the natural antimicrobial materials on pure spore samples.

| SMILES | sterilization effect attributed to ingredients of the extract |
| --- | --- |
| C[C@H](N)C(=O)O [alanine] | about 10^2 |
| CC(=O)OC1CC2CCC1(C)C2(C)C (centres unmarked) [bornyl acetate] | about 10^1 |
| CC(=O)OC/C=C(\C)CCC=C(C)C [geranyl acetate] | about 10^1 |
| OC[C@@H](O)[C@@H](O)[C@H](O)[C@H](O)CO [mannitol] | about 10^2 |
| OC[C@@H](O)[C@H](O)[C@@H](O)CO [xylitol] | about 10^2 |
